Values of other authors in paper PMC11272189, “PNA5, A Novel Mas Receptor Agonist, Improves Neurovascular and Blood-Brain-Barrier Function in a Mouse Model of Vascular Cognitive Impairment and Dementia” (Aging and Disease, 2024).

System: healthy control mice
Settings: daily injections at 1mg/kg/day
Experimental: All use of animals in this study conformed to the guidelines approved by the Institutional Animal Care and Use Committee at the University of Arizona and in accordance with the National Institutes of Health Guidelines for the Care and Use of Laboratory Animals. Both the number of animals used, and their suffering were minimized. The number of animals needed for each experiment was determined using a G*Power analysis. Importantly for the present study, we have shown in previously published studies that treatment of healthy control mice with daily injections of PNA5 or the native peptide ...

Angiotensin-(1-7) (DRVYIHP; Angiotensin 1-7; UniProt P01019 25-31, looked up) [Ang-(1-7), native peptide]
effect on heart function, cognitive function or circulating cytokines: no effect
